In ChEMBL document CHEMBL3397034, “Environmentally benign synthesis, molecular properties prediction and anti-inflammatory activity of novel isoxazolo[5,4-d]isoxazol-3-yl-aryl-methanones via vinylogous Henry nitroaldol adducts as synthons” (2015):

Key:
Type in all cases: functional
Rattus norvegicus [1] = assay: Anti-inflammatory activity in Wistar rat assessed as reduction in carrageenan induced paw edema by measuring paw volume as ml of Hg at 100 mg/kg, po administered 30 mins before carrageenan challenge measured 1 hr post carrageenan challenge (reference value: 0.36 +/- 0.3 ml of Hg)
Rattus norvegicus [2] = assay: Anti-inflammatory activity in Wistar rat assessed as reduction in carrageenan induced paw edema by measuring paw volume as ml of Hg at 100 mg/kg, po administered 30 mins before carrageenan challenge measured 2 hrs post carrageenan challenge (reference value: 0.36 +/- 0.3 ml of Hg)
Rattus norvegicus [3] = assay: Anti-inflammatory activity in Wistar rat assessed as reduction in carrageenan induced paw edema by measuring paw volume as ml of Hg at 100 mg/kg, po administered 30 mins before carrageenan challenge measured 4 hrs post carrageenan challenge (reference value: 0.36 +/- 0.3 ml of Hg)
Rattus norvegicus [4] = assay: Anti-inflammatory activity in Wistar rat assessed as reduction in carrageenan induced paw edema by measuring paw volume as ml of Hg at 100 mg/kg, po administered 30 mins before carrageenan challenge measured 6 hrs post carrageenan challenge (reference value: 0.36 +/- 0.3 ml of Hg)

Row | Structure (SMILES) | Activity (Rattus norvegicus [1]) | Activity (Rattus norvegicus [2]) | Activity (Rattus norvegicus [3]) | Activity (Rattus norvegicus [4])
1 | Cc1noc2c(C(=O)c3ccccc3)noc12 | 0.8 mL | 0.86 mL | 0.82 mL | 0.63 mL
2 | Cc1noc2c(C(=O)c3ccccc3[N+](=O)[O-])noc12 | 0.75 mL | 0.83 mL | 0.81 mL | 0.63 mL
3 | Cc1noc2c(C(=O)c3ccccc3O)noc12 | 0.82 mL | 0.93 mL | 0.8 mL | 0.61 mL
4 | COc1ccc(C(=O)c2noc3c(C)noc23)cc1 | 0.78 mL | 0.7 mL | 0.83 mL | 0.62 mL
5 | Cc1noc2c(C(=O)c3ccccc3Cl)noc12 | 0.51 mL | 0.68 mL | 0.51 mL | 0.5 mL
6 | Cc1noc2c(C(=O)c3ccc(N(C)C)cc3)noc12 | 0.78 mL | 0.83 mL | 0.63 mL | 0.55 mL
7 | Cc1noc2c(C(=O)c3ccccc3Br)noc12 | 0.5 mL | 0.68 mL | 0.65 mL | 0.51 mL
8 | Cc1noc2c(C(=O)c3ccc(Cl)cc3)noc12 | 0.53 mL | 0.65 mL | 0.67 mL | 0.41 mL
9 | Cc1noc2c(C(=O)c3ccc(Br)cc3)noc12 | 0.52 mL | 0.69 mL | 0.54 mL | 0.32 mL
